Experimental findings from patent US20130316042A1, “ENHANCED RELEASE OF LIPOPHILIC INGREDIENTS FROM CHEWING GUM WITH HYDROCOLLOIDS” (CADBURY ADAMS MEXICO, S. DE R.L. DE C.V., priority 2010, published 2013) are described below.

Structures are written as SMILES.

The nature of this data set: logP (octanol/water) at 25° C. In kind it is physicochemical. The procedure:
In one aspect, the lipophilic ingredient is one having a partition coefficient between octanol and water (log P (octanol/water) at 25° C.) of greater than or equal to 1.5, specifically greater than or equal to 2.0, more specifically greater than or equal to 2.5, yet more specifically greater than or equal to 3.0, still yet more specifically greater than or equal to 3.5, and more specifically greater than or equal to 4.0. The partition coefficient of material can be determined experimentally or calculated using commercially available software.
For `C/C=C/C=C\CC/C=C/C(=O)NCC(C)C` [spilanthol, N-isobutyl-2E,6Z,8E-decatrienamide], the logP (usually a log measure of how a compound divides between an organic and an aqueous phase) is 3.4.
Same read-out and setting: to `CCOC(=O)CNC(=O)C1CC(C)CCC1C(C)C` (stereo not shown) [ethyl 2-[(5-methyl-2-propan-2-ylcyclohexanecarbonyl)amino]acetate] belongs 3.38.
For `CC(C)[C@@H]1CC[C@@H](C)C[C@H]1OC(=O)CCCC(=O)O` [monomenthyl glutarate], the “logP (octanol/water) at 25° C.” value stood at 4.12.
For the compound `CNC(=O)C(C)(C(C)C)C(C)C` [N,2,3-trimethyl-2-propan-2-ylbutanamide], the logP was 2.48.
`CCNC(=O)C1CC(C)CCC1C(C)C` (stereo not shown) [N-ethyl-p-menthane-3-carboxamide (WS-3), N-ethyl-p-menthane-3-carboxamide] had a logP of 3.81.
Same read-out and setting: to `CCNC(=O)C(CC)(C(C)C)C(C)C` [N-ethyl-2,2-diisopropylbutanamide] belongs 3.6.
On the same count and under the same terms, then `CC1CCC(C(C)C)C(O)C1` (stereo not shown) [menthol, reference compound], with 3.4.
